Source: patent publication US20030232986A1, “Inhibitors of caspases” (Vertex Pharmaceuticals Incorporated, priority 1998, published 2003)
Like-named read-outs stand apart in the source and are kept apart here. *1 amine or outer side, *2 acyl side, *3 side chain or, on linkers, in order; H or OH if unused. Where a SMILES comes first, the peptide text is derived from it. [ ]: non-standard residue; d: D form. The star is where a group is joined. 4Abz = Nc1ccc(C(=O)O)cc1; CO = O=C([*:1])[*:2]; NHPh = c1ccc(N*)cc1

Molecular target: T1, Caspase-1 (Homo sapiens, UniProt P29466)
T1 sequence (P29466 120-297 limits assumed): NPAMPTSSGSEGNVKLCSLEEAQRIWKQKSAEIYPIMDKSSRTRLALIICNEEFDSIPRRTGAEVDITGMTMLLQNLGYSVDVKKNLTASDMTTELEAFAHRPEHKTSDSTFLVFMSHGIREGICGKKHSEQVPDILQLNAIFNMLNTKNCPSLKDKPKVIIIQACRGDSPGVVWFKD
T1 sequence (P29466 317-404 limits assumed): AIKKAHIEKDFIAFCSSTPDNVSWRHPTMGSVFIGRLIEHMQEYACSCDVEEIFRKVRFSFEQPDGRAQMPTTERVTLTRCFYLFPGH
Assay: Caspase-1 enzyme inhibition (Ki)
Assay type: biochemical
Procedure: Ki values for test compounds with the various caspases were obtained by the method of Margolin et al. (J. Biol. Chem., 272 pp. 7223-7228 (1997)). Assays were performed in 10 mM Tris (Sigma Corp, St Louis Mo.) pH 7.5, 1 mM Dithiothreitol (DTT, Research Organic INC, Cleveland, Ohio) and 0.1% CHAPS (Pierce, Rockford Ill.) at 37° C. For caspase-3, a solution of 8% glycerol was added to the assay buffer to improve enzyme stability. A 65 μL aliquot of the assay buffer and 5 μL aliquot of the appropriate dilutions of inhibitor in DMSO where pipetted into a 96 well plate, treated with 10 μL of caspase, then diluted in assay buffer (0.5-40 nM active protein by active site titration). A control containing DMSO but no compound was included for each determination. The plates were then incubated for 15 minutes at 37° C., before addition of the appropriate substrate (20 μL, final concentration 1-4×KM, final assay volume 100 μL) to initiate the reaction. Reaction rates were measured at 37° C. either by following the time dependant increase in absorbance at 405 nm (for the pNA substrates) or in fluorescence (Ex 390, Em 460) (for the AMC substrates). The rates obtained were plotted against inhibitor concentration and the data fit to the Morrison tight-binding equation for competitive inhibitors (Morrison, J. F., Biochem. Biophys. Acta, 185 pp. 269-286 (1969)). The substrates used for the individual assays were as follows:
Caspase-1 Suc-YVAD-pNA (Bachem, King of Prussia, Pa.) (final concentration in the assay 80 μM),

[1] = substrate Suc-YVAD-pNA 80 μM, 37° C., pH 7.5

**Q.** With `C[C@H](NS(=O)(=O)c1ccccc1)C(=O)N1CCC[C@H]1C(=O)N[C@H](C=O)CC(=O)O` [Example 7ae] as the compound, how does the Ki [1] read?
**A.** 10 to 1000 nM

**Q.** With `COc1ccc(C(=O)NC(C(=O)N2N=C(C(C)(C)C)SC2C(=O)NC(C=O)CC(=O)O)C(C)C)cc1` (single isomer, unassigned) [Example 46a, 3-({5-tert-butyl-3-[2-(4-methoxy-benzoylamino)-3-methyl-butyryl]-2,3-dihydro-[1,3,4]thiadiazole-2-carbonyl)-amino)-4-oxo-butyric acid] as the compound, how does the Ki [1] read?
**A.** > 1000 nM

**Q.** Which Ki [1] does the source give for `Cc1ccn2c(=O)c(C(=O)N[C@H](C(=O)N3CCC[C@H]3C(=O)N[C@H](C=O)CC(=O)O)C(C)C)cnc2c1` [Example 5ap] here?
**A.** 10 to 1000 nM

**Q.** Which results are given for `CC(C)[C@H](NC(=O)C(c1ccc(Cl)cc1)c1ccc(Cl)cc1)C(=O)N1CCC[C@H]1C(=O)N[C@H](C=O)CC(=O)O` [Example 5p]?
**A.** Ki: 10 to 1000 nM; Ki [1]: 10 to 1000 nM

**Q.** How did the Ki [1] turn out when `C[C@H](NC(=O)Nc1ccccc1)C(=O)N1CCC[C@H]1C(=O)N[C@H](C=O)CC(=O)O` [Example 7af] ({NHPh-CO}-Ala-Pro-Asp-aldehyde) was run?
**A.** 10 to 1000 nM

**Q.** With `Cc1cc(C(=O)N[C@@H](C)C(=O)N2CC(F)(F)C[C@H]2C(=O)N[C@H](C=O)CC(=O)O)cc(C)c1O` [Example 27j] as the compound, how does the Ki [1] read?
**A.** 10 to 1000 nM

**Q.** For `CC(C)C[C@@H](C(=O)N[C@H](C=O)CC(=O)O)N1CC[C@@H](NC(=O)c2nccc3ccccc23)C1=O` [Example 32a], which Ki [1] is on record?
**A.** > 1000 nM

**Q.** `C[C@H](NC(=O)c1ccc(NC(=O)Cc2ccccc2)c(Cl)c1)C(=O)N1CCC[C@H]1C(=O)N[C@H](C=O)CC(=O)O` [Example 122u, 3-({1-[2-(3-Chloro-4-phenylacetylamino-benzoylamino)-propionyl]-pyrrolidine-2-carbonyl}-amino)-4-oxo-butyric acid] was tested. Which Ki [1] did it give?
**A.** < 10 nM

**Q.** For `CC(C)[C@H](NC(=O)C(c1ccccc1)c1ccccc1)C(=O)N1CCC[C@H]1C(=O)N[C@H](C=O)CC(=O)O` [Example 5q], which Ki is on record?
**A.** 10 to 1000 nM

**Q.** What about the Ki [1] of the same compound?
**A.** 10 to 1000 nM

**Q.** Which Ki [1] does the source give for `CC(C)CC(=O)Nc1ccc(C(=O)N[C@@H](C)C(=O)N2CCC[C@H]2C(=O)N[C@H](C=O)CC(=O)O)cc1Cl` [Example 122v, 3-[(1-{2-[3-Chloro-4-(3-methyl-butyrylamino)-benzoylamino]-propionyl}-pyrrolidine-2-carbonyl}-amino]-4-oxo-butyric acid] here?
**A.** 10 to 1000 nM

**Q.** For `CC(=O)N[C@H](Cc1c[nH]c2ccccc12)C(=O)N[C@H](C(=O)N1CCC[C@H]1C(=O)N[C@H](C=O)CC(=O)O)C(C)C` [Example 5ah] (Ac-[dW]VPD-aldehyde), which Ki is on record?
**A.** 10 to 1000 nM

**Q.** What about the Ki [1] of the same compound?
**A.** 10 to 1000 nM

**Q.** For `CC(C)[C@H](NC(=O)c1cccc2ccccc12)C(=O)N[C@@H](C)C(=O)N[C@H](C=O)CC(=O)O` [Example 29f], which Ki [1] is on record?
**A.** < 10 nM

**Q.** With `COc1ccc(CCC(=O)N[C@H](C(=O)N2CCC[C@H]2C(=O)N[C@H](C=O)CC(=O)O)C(C)C)cc1OC` [Example 5o] as the compound, how does the Ki read?
**A.** 10 to 1000 nM

**Q.** What about the Ki [1] of the same compound?
**A.** 10 to 1000 nM

**Q.** With `CN(NC(=O)N1CCCC1C(=O)NC(C=O)CC(=O)O)C(=O)c1nccc2ccccc12` (centres unmarked) [Example 34, 3-({1-[N-(isoquinoline-1-carbonyl)-N-methyl-hydrazinocarbonyl]-pyrrolidine-2-carbonyl}-amino)-4-oxo-butyric acid] as the compound, how does the Ki [1] read?
**A.** > 1000 nM

**Q.** How did the Ki [1] turn out when `CC(C)C[C@@H](C(=O)N[C@H](C=O)CC(=O)O)N1CC[C@@H](NC(=O)c2c(Cl)cccc2Cl)C1=O` [Example 32e] was run?
**A.** 10 to 1000 nM

**Q.** For `C[C@H](NC(=O)Oc1ccccc1)C(=O)N1CCC[C@H]1C(=O)N[C@H](C=O)CC(=O)O` [Example 7ag], which Ki [1] is on record?
**A.** 10 to 1000 nM

**Q.** With `C[C@H](NC(=O)C(=O)c1ccccc1)C(=O)N1CC(F)(F)C[C@H]1C(=O)N[C@H](C=O)CC(=O)O` [Example 27c] as the compound, how does the Ki [1] read?
**A.** 10 to 1000 nM

**Q.** Which Ki [1] does the source give for `CC(=O)N(C)c1ccc(C(=O)N[C@@H](C)C(=O)N2CCC[C@H]2C(=O)N[C@H](C=O)CC(=O)O)cc1` [Example 7j] here?
**A.** > 1000 nM

**Q.** Which Ki [1] does the source give for `CC(C)[C@H](NC(=O)c1ccc(N)c(Cl)c1)C(=O)N1CCN(C)C[C@H]1C(=O)N[C@H](C=O)CC(=O)O` [Example 17a] here?
**A.** 10 to 1000 nM

**Q.** `Cc1onc(-c2c(F)cccc2Cl)c1C(=O)N[C@H](C(=O)N1CCC[C@H]1C(=O)N[C@H](C=O)CC(=O)O)C(C)C` [Example 5ae] was tested. Which Ki did it give?
**A.** 10 to 1000 nM

**Q.** What about the Ki [1] of the same compound?
**A.** 10 to 1000 nM

**Q.** With `C[C@H](NC(=O)c1ccc(N)cc1)C(=O)N1CCC[C@H]1C(=O)N[C@H](C=O)CC(=O)O` [Example 7aq] (H-[4Abz]APD-aldehyde) as the compound, how does the Ki [1] read?
**A.** 10 to 1000 nM

**Q.** How did the Ki [1] turn out when `C[C@H](NC(=O)c1ccc(F)c(F)c1)C(=O)N1CCC[C@H]1C(=O)N[C@H](C=O)CC(=O)O` [Example 7al] was run?
**A.** 10 to 1000 nM

**Q.** `COc1c(C(=O)NC(C)C(=O)N2CC(F)(F)CC2C(=O)NC(C=O)CC(=O)O)ccc(NC(C)=O)c1Cl` (centres unmarked) [Example 123c, 3-({1-[2-(4-Acetylamino-3-chloro-2-methoxy-benzoylamino)-propionyl]-4,4-difluoro-pyrrolidine-2-carbonyl)-amino)-4-oxo-butyric acid] was tested. Which Ki [1] did it give?
**A.** 10 to 1000 nM

**Q.** `CC(=O)Nc1c(Cl)cc(C(=O)N[C@@H](C)C(=O)N2CC(F)(F)C[C@H]2C(=O)N[C@H](C=O)CC(=O)O)cc1Cl` [Example 27k] was tested. Which Ki [1] did it give?
**A.** 10 to 1000 nM

**Q.** `CCC(=O)Nc1ccc(C(=O)N[C@@H](C)C(=O)N2CCC[C@H]2C(=O)N[C@H](C=O)CC(=O)O)cc1Cl` [Example 122t, 3-({1-[2-(3-Chloro-4-propionylamino-benzoylamino)-propionyl]-pyrrolidine-2-carbonyl}-amino)-4-oxo-butyric acid] was tested. Which Ki [1] did it give?
**A.** 10 to 1000 nM

**Q.** How did the Ki [1] turn out when `Cc1nc(C)c(C(=O)N[C@@H](C)C(=O)N2CCC[C@H]2C(=O)N[C@H](C=O)CC(=O)O)s1` [Example 7r] was run?
**A.** 10 to 1000 nM

**Q.** For `C[C@H](NC(=O)c1ccc(N)c(Cl)c1)C(=O)N1CCC[C@@H]1C(=O)N[C@H](C=O)CC(=O)O` [Example 122o, 3-({1-[2-(4-Amino-3-chloro-benzoylamino)-propionyl]-pyrrolidine-2-carbonyl}-amino)-4-oxo-butyric acid], which Ki [1] is on record?
**A.** > 1000 nM

**Q.** With `CC(C)C[C@@H](C(=O)N[C@H](C=O)CC(=O)O)N1CC[C@@H](NC(=O)c2ccc3[nH]nnc3c2)C1=O` [Example 32c] as the compound, how does the Ki [1] read?
**A.** > 1000 nM

**Q.** With `Cc1cc(C(=O)N[C@@H]2CCN([C@@H](CC(C)C)C(=O)N[C@H](C=O)CC(=O)O)C2=O)cc(C)c1O` [Example 32b] as the compound, how does the Ki [1] read?
**A.** > 1000 nM

**Q.** With `C[C@H](NC(=O)c1cc(F)c(N(C)C)c(F)c1)C(=O)N1CCC[C@H]1C(=O)N[C@H](C=O)CC(=O)O` [Example 122n, 3-({1-[2-(4-Dimethylamino-3,5-difluoro-benzoylamino)-propionyl]-pyrrolidine-2-carbonyl}-amino)-4-oxo-butyric acid] as the compound, how does the Ki [1] read?
**A.** 10 to 1000 nM

**Q.** For `Nc1ccc(C(=O)NCC(=O)N2CCC[C@H]2C(=O)N[C@H](C=O)CC(=O)O)cc1Cl` [Example G1, 3-({1-[(4-Amino-3-chloro-benzoylamino)-acetyl]-pyrrolidine-2-carbonyl}-amino)-4-oxo-butyric acid], which Ki [1] is on record?
**A.** > 1000 nM

**Q.** With `CC(C)[C@H](NC(=O)C1(c2ccccc2)CCCC1)C(=O)N1CCC[C@H]1C(=O)N[C@H](C=O)CC(=O)O` [Example 5t] as the compound, how does the Ki read?
**A.** > 1000 nM

**Q.** What about the Ki [1] of the same compound?
**A.** > 1000 nM

**Q.** How did the Ki [1] turn out when `C[C@H](NC(=O)c1ccc(OC(F)(F)F)cc1)C(=O)N1CCC[C@H]1C(=O)N[C@H](C=O)CC(=O)O` [Example 7i] was run?
**A.** 10 to 1000 nM

**Q.** How did the Ki [1] turn out when `CC(C)[C@H](NC(=O)c1c(-c2ccccc2)nnc2ccccc12)C(=O)N1CCC[C@H]1C(=O)N[C@H](C=O)CC(=O)O` [Example 5bc] was run?
**A.** 10 to 1000 nM

**Q.** `CC(C)[C@H](NC(=O)Cc1ccc(Cl)c(Cl)c1)C(=O)N1CCC[C@H]1C(=O)N[C@H](C=O)CC(=O)O` [Example 5an] was tested. Which Ki [1] did it give?
**A.** 10 to 1000 nM
